# PubChem BioAssay (NCI)
#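 Exposure lasted 48 hours, with cells grown in 96-well plates and compounds tested at five concentrations. TGI: total growth inhibition.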 Where a SMILES comes first, the peptide text is derived from it. The star is where a group is joined. Cbz = O=C(OCc1ccccc1)*; Boc = CC(C)(C)OC(=O)*; Bn = c1ccc(C*)cc1
# Columns and labels:
# Assay in all cases: growth of human tumour cells (NCI), 48 h
# [1] = test system: SNB-75 CNS
# [2] = test system: PC-3 prostate
# [3] = test system: HCC-2998 colon
# [4] = test system: K-562 leukemia
# [5] = test system: BT-549 breast
# [6] = test system: U251 CNS
# [7] = test system: SNB-19 CNS
# [8] = test system: IGROV1 ovarian
# [9] = test system: SK-MEL-28 melanoma
# [10] = test system: SK-MEL-5 melanoma
# [11] = test system: KM12 colon
# [12] = test system: SW-620 colon
# [13] = test system: 786-0 renal
# [14] = test system: OVCAR-8 ovarian
# [15] = test system: M14 melanoma
# [16] = test system: UACC-257 melanoma
# [17] = test system: A549 NSCLC
# [18] = test system: MALME-3M melanoma
# [19] = test system: CCRF-CEM leukemia
# [20] = test system: MDA-MB-231 breast
# [21] = test system: SN12C renal
# [22] = test system: HOP-92 NSCLC
# [23] = test system: OVCAR-5 ovarian
# [24] = test system: SK-MEL-2 melanoma
# [25] = test system: RPMI-8226 leukemia
# [26] = test system: HOP-62 NSCLC
# [27] = test system: MCF7 breast
# [28] = test system: RXF 393 renal
# [29] = test system: UO-31 renal
# [30] = test system: HCT-116 colon
# [31] = test system: SR leukemia
# [32] = test system: HT29 colon
# [33] = test system: NCI-H23 lung
# [34] = test system: COLO 205 colon
# [35] = test system: EKVX NSCLC
# [36] = test system: UACC-62 melanoma
# [37] = test system: NCI-H226 lung
# [38] = test system: MDA-N
# [39] = test system: MOLT-4 leukemia
# [40] = test system: HS 578T breast
# [41] = test system: HL-60(TB) leukemia
# [42] = test system: TK-10 renal
# [43] = test system: DU-145 prostate
# [44] = test system: SF-539 CNS
# [45] = test system: LOX IMVI melanoma
# [46] = test system: T-47D breast
# [47] = test system: OVCAR-4 ovarian
# [48] = test system: ACHN renal
# [49] = test system: MDA-MB-435
# [50] = test system: NCI/ADR-RES ovarian
# [51] = test system: OVCAR-3 ovarian
# [52] = test system: NCI-H460 lung
# [53] = test system: CAKI-1 renal
# [54] = test system: NCI-H522 lung
# [55] = test system: HCT-15 colon
# [56] = test system: SF-295 CNS
# [57] = test system: SK-OV-3 ovarian
# [58] = test system: SF-268 CNS
smiles,measurement,setting,value
CC(C)(C)OC(=O)NC(Cc1ccc(OCc2ccccc2)cc1)C(=O)NC(CCCCNC(=O)OCc1ccccc1)C(=O)O (stereo unspecified) (Boc-Tyr(Bn)-Lys(Cbz)-OH; configuration not given here),TGI,[1],> 100 µM
same,TGI,[2],> 100 µM
same,TGI,[3],> 100 µM
same,TGI,[4],> 100 µM
same,TGI,[5],60.8 µM
same,TGI,[6],> 100 µM
same,TGI,[7],> 100 µM
same,TGI,[8],> 100 µM
same,TGI,[9],44.2 µM
same,TGI,[10],> 100 µM
same,TGI,[11],> 100 µM
same,TGI,[12],> 100 µM
same,TGI,[13],> 100 µM
same,TGI,[14],> 100 µM
same,TGI,[15],> 100 µM
same,TGI,[16],> 100 µM
same,TGI,[17],> 100 µM
same,TGI,[18],> 100 µM
same,TGI,[19],> 100 µM
same,TGI,[20],> 100 µM
same,TGI,[21],> 100 µM
same,TGI,[22],48.5 µM
same,TGI,[23],> 100 µM
same,TGI,[24],80 µM
same,TGI,[25],> 100 µM
same,TGI,[26],> 100 µM
same,TGI,[27],> 100 µM
same,TGI,[28],> 100 µM
same,TGI,[29],> 100 µM
same,TGI,[30],> 100 µM
same,TGI,[31],89.6 µM
same,TGI,[32],> 100 µM
same,TGI,[33],> 100 µM
same,TGI,[34],> 100 µM
same,TGI,[35],> 100 µM
same,TGI,[36],43.9 µM
same,TGI,[37],> 100 µM
same,TGI,[38],> 100 µM
same,TGI,[39],85.1 µM
same,TGI,[40],> 100 µM
same,TGI,[41],86.9 µM
same,TGI,[42],> 100 µM
Cc1ccccc1NC(=O)C(=O)CC(=O)c1sc(Nc2ccccc2[N+](=O)[O-])nc1C,TGI,[2],> 100 µM
same,TGI,[3],59.3 µM
same,TGI,[4],> 100 µM
same,TGI,[5],79 µM
same,TGI,[43],> 100 µM
same,TGI,[6],> 100 µM
same,TGI,[7],> 100 µM
same,TGI,[8],> 100 µM
same,TGI,[44],91 µM
same,TGI,[9],82.8 µM
same,TGI,[10],> 100 µM
same,TGI,[11],> 100 µM
same,TGI,[12],> 100 µM
same,TGI,[13],48.3 µM
same,TGI,[14],> 100 µM
same,TGI,[15],> 100 µM
same,TGI,[16],> 100 µM
same,TGI,[17],> 100 µM
same,TGI,[45],> 100 µM
same,TGI,[20],40.2 µM
same,TGI,[46],68.1 µM
same,TGI,[21],> 100 µM
same,TGI,[47],52.9 µM
same,TGI,[22],59.6 µM
same,TGI,[48],48.3 µM
same,TGI,[23],> 100 µM
same,TGI,[49],> 100 µM
same,TGI,[50],> 100 µM
same,TGI,[51],79.5 µM
same,TGI,[24],> 100 µM
same,TGI,[25],> 100 µM
same,TGI,[26],58.1 µM
same,TGI,[27],70.3 µM
same,TGI,[28],89.1 µM
same,TGI,[52],> 100 µM
same,TGI,[53],> 100 µM
same,TGI,[29],32.4 µM
same,TGI,[54],86.1 µM
same,TGI,[55],> 100 µM
same,TGI,[56],66.7 µM
same,TGI,[30],> 100 µM
same,TGI,[57],58.7 µM
same,TGI,[58],> 100 µM
same,TGI,[32],> 100 µM
same,TGI,[33],> 100 µM
same,TGI,[34],> 100 µM
same,TGI,[35],> 100 µM
same,TGI,[36],48 µM
same,TGI,[37],> 100 µM
same,TGI,[38],> 100 µM
same,TGI,[39],> 100 µM
same,TGI,[40],> 100 µM
same,TGI,[41],> 100 µM
same,TGI,[42],81.5 µM
